Measurements published in PMC12396409, “Screening and hit evaluation of a microbial metabolite library against the pathogenic Plasmodium falciparum and Toxoplasma gondii parasites” (International Journal for Parasitology: Drugs and Drug …, 2025).
Counter-ions that a name gives are not always drawn. Like-named read-outs stand apart in the source and are kept apart here.

Legend:
[1] = tested on: P. falciparum 3D7 parasites; test: P. falciparum growth inhibition assay, 1-cycle (72 h treatment), SYBR DNA staining (library screen at 2 μg/mL and dose-response); type: cell-based, Plasmodium falciparum; settings: 72 h; for activity at 2 µg/mL: Plasmodium falciparum, 3D7, 72 h
[2] = tested on: P. falciparum 3D7 parasites; test: P. falciparum growth inhibition assay, 2-cycle (120 h treatment), delayed-death screen and dose-response; type: cell-based, Plasmodium falciparum; settings: for activity at 2 µg/mL: Plasmodium falciparum, 3D7, 120 h
[3] = tested on: T. gondii RH strain (RH-Tub-eYFP) tachyzoites; test: microbe, parasite or virus in culture; type: cell-based, Toxoplasma gondii; settings: 72 h, 72 h; for percent parasite growth at 2 µg/mL: Toxoplasma gondii
[4] = P. falciparum, screen at 2 μg/mL, replicate 1
[5] = P. falciparum, screen at 2 μg/mL, replicate 2
[6] = P. falciparum, 120 h, screen at 2 μg/mL, replicate 1
[7] = P. falciparum, 120 h, screen at 2 μg/mL, replicate 2
[8] = T. gondii, screen at 2 μg/mL, replicate 1
[9] = T. gondii, screen at 2 μg/mL, replicate 2
[10] = P. falciparum, parasite screen 2 μg/mL, % growth, replicate 1
[11] = P. falciparum, parasite screen 2 μg/mL, % growth, replicate 2
[12] = P. falciparum, 120 h, parasite screen 2 μg/mL, % growth, replicate 1
[13] = P. falciparum, 120 h, parasite screen 2 μg/mL, % growth, replicate 2
[14] = T. gondii, parasite screen 2 μg/mL, % growth, replicate 1
[15] = T. gondii, parasite screen 2 μg/mL, % growth, replicate 2
[16] = library screen at 2 μg/mL, % growth, replicate 1
[17] = library screen at 2 μg/mL, % growth, replicate 2

With CC[C@H](C)C(=O)O[C@H]1C[C@H](O)C=C2C=C[C@H](C)[C@H](CC[C@@H](O)C[C@@H](O)CC(=O)O)[C@H]21 [Pravastatin sodium] the activity at 2 µg/mL ([1]; P. falciparum, parasite screen 2 μg/mL, % growth, replicate 1, read-out: Pf_72h_%Growth_Rep1) was 83.8%, the activity at 2 µg/mL ([1]; P. falciparum, parasite screen 2 μg/mL, % growth, replicate 2, read-out: Pf_72h_%Growth_Rep2) was 99.3% and the activity at 2 µg/mL ([2]; P. falciparum, 120 h, parasite screen 2 μg/mL, % growth, replicate 1, read-out: Pf_120h_%Growth_Rep1) was 96.8%. For the same compound, the activity at 2 µg/mL ([2]; P. falciparum, 120 h, parasite screen 2 μg/mL, % growth, replicate 2, read-out: Pf_120h_%Growth_Rep2) was 111%, the percent parasite growth at 2 µg/mL ([3]; T. gondii, parasite screen 2 μg/mL, % growth, replicate 1, read-out: Tg_72h_%Growth_Rep1) was 92.2% and the percent parasite growth at 2 µg/mL ([3]; T. gondii, parasite screen 2 μg/mL, % growth, replicate 2, read-out: Tg_72h_%Growth_Rep2) was 94.6%.

CC(=O)O.CC(=O)O.CC[C@H](C)C[C@H](C)CCCCCCCCC(=O)N[C@H]1C[C@@H](O)[C@@H](NCCN)NC(=O)[C@@H]2[C@@H](O)CCN2C(=O)[C@H]([C@H](O)CCN)NC(=O)[C@H]([C@H](O)[C@@H](O)c2ccc(O)cc2)NC(=O)[C@@H]2C[C@@H](O)CN2C(=O)[C@H]([C@@H](C)O)NC1=O [Caspofungin acetate] showed a Pf_72h_%Growth_Rep1 [1, 4] of 37.83%, a Pf_72h_%Growth_Rep2 [1, 5] of 84.89% and a Pf_120h_%Growth_Rep1 [2, 6] of 148.27%. The Pf_120h_%Growth_Rep2 [2, 7] was 78.66%, the Tg_72h_%Growth_Rep1 [3, 8] was 95.80% and the Tg_72h_%Growth_Rep2 [3, 9] was 93.96%.

Compound C[C@@]12CCC[C@@]34CCC[C@@H](C=C[C@H]1CC3)N42 [Porantherine] has a Pf_72h_%Growth_Rep1 [1, 10] of 85.43%, a Pf_72h_%Growth_Rep2 [1, 11] of 115.67% and a Pf_120h_%Growth_Rep1 [2, 12] of 101.33%. It also gave a Pf_120h_%Growth_Rep2 [2, 13] of 98.35%, a Tg_72h_%Growth_Rep1 [3, 14] of 90.85% and a Tg_72h_%Growth_Rep2 [3, 15] of 74.43%.

In the case of CCN(CC)CCS(=O)(=O)[C@@H]1CCN2C(=O)c3coc(n3)CC(=O)C[C@H](O)/C=C(C)/C=C/CNC(=O)/C=C/[C@@H](C)[C@@H](C(C)C)OC(=O)[C@@H]12.CS(=O)(=O)O [Dalfopristin mesylate, reference compound], the “1) Growth (%) at 72 h” value ([1]; P. falciparum, 2 μg/mL) is reported as 45.58%, the Pf_72h_%Growth_Rep1 [1, 4] is reported as 55.22% and the Pf_72h_%Growth_Rep2 [1, 5] is reported as 35.94%. The “2) Growth (%) at 120 h” value ([2]; P. falciparum, 2 μg/mL, 120 h) was 5.60%, the Pf_120h_%Growth_Rep1 [2, 6] was 1.37% and the Pf_120h_%Growth_Rep2 [2, 7] was 9.82%. For the same compound, the “3) Fold change (72 h/120 h)” value ([2]; P. falciparum, growth at 72 h / growth at 120 h, 2 μg/mL) was 8.1, the Tg_72h_%Growth_Rep1 [3, 8] was 40.17% and the Tg_72h_%Growth_Rep2 [3, 9] was 68.18%.

In the case of COC(=O)[C@H]1NC(=O)[C@H]2NC(=O)[C@H](NC(=O)[C@@H]3NC(=O)[C@H]4NC(=O)[C@H](NC(=O)[C@H](N)c5ccc(O)c(c5)Oc5cc4cc(O)c5C)[C@H](O)c4ccc(cc4)Oc4cc3cc(c4O[C@@H]3O[C@H](COC4O[C@@H](C)[C@H](O)[C@@H](O)[C@H]4O)[C@@H](O)[C@H](O)[C@H]3O[C@@H]3O[C@@H](CO)[C@H](O)[C@@H](O)[C@H]3O[C@@H]3OC[C@@H](O)[C@@H](O)[C@@H]3O)Oc3ccc(cc3)[C@H]2O[C@@H]2C[C@@H](N)[C@@H](O)[C@H](C)O2)c2ccc(O)c(c2)-c2c(O[C@@H]3O[C@H](CO)[C@@H](O)[C@H](O)[C@@H]3O)cc(O)cc21 (stereo partly drawn) [Ristocetin A sulfate], the Pf_72h_%Growth_Rep1 [1, 10] is reported as 85.98%, the Pf_72h_%Growth_Rep2 [1, 11] is reported as 111.61% and the Pf_120h_%Growth_Rep1 [2, 12] is reported as 82.07%. It also gave a Pf_120h_%Growth_Rep2 [2, 13] of 109.30%, a Tg_72h_%Growth_Rep1 [3, 14] of 119.41% and a Tg_72h_%Growth_Rep2 [3, 15] of 85.51%.

CO[C@@H]1[C@H](OC(=O)/C=C/C=C/C=C/C=C/C(=O)O)CC[C@]2(CO2)[C@H]1[C@@]1(C)O[C@@H]1CC=C(C)C [Fumagillin] gave an activity at 2 µg/mL ([1]; library screen at 2 μg/mL, % growth, replicate 1, read-out: Pf_72h_%Growth_Rep1) of 10.6%, an activity at 2 µg/mL ([1]; library screen at 2 μg/mL, % growth, replicate 2, read-out: Pf_72h_%Growth_Rep2) of 6.01% and an activity at 2 µg/mL ([2]; library screen at 2 μg/mL, 120 h, % growth, replicate 1, read-out: Pf_120h_%Growth_Rep1) of 7.49%. It also gave an activity at 2 µg/mL ([2]; library screen at 2 μg/mL, 120 h, % growth, replicate 2, read-out: Pf_120h_%Growth_Rep2) of 7.63%, a percent parasite growth at 2 µg/mL ([3]; library screen at 2 μg/mL, % growth, replicate 1, read-out: Tg_72h_%Growth_Rep1) of 31% and a percent parasite growth at 2 µg/mL ([3]; library screen at 2 μg/mL, % growth, replicate 2, read-out: Tg_72h_%Growth_Rep2) of 30.7%.

Work on CC(=O)O[C@@H]1[C@@H]2O[C@H]2[C@@](C)(O)C(=O)[C@@H](C)C/C=C\[C@H]2[C@H](O)C(C)=C(C)[C@H]3[C@H](Cc4ccccc4)NC(=O)[C@@]123 [Epoxycytochalasin C, 19,20-] yielded a Pf_72h_%Growth_Rep1 [1, 16] of 3.41%, a Pf_72h_%Growth_Rep2 [1, 17] of 4.96% and a Pf_120h_%Growth_Rep1 ([2]; library screen at 2 μg/mL, 120 h, % growth, replicate 1) of 4.88%. The Pf_120h_%Growth_Rep2 ([2]; library screen at 2 μg/mL, 120 h, % growth, replicate 2) was 15.35%, the Tg_72h_%Growth_Rep1 [3, 16] was 1.38% and the Tg_72h_%Growth_Rep2 [3, 17] was 1.44%.
